Experimental data taken from patent publication US4672068A, “Antihypertensive 1,4-dihydropyridines having a conjugated ester” (Fujirebio Kabushiki Kaisha, priority 1984, dated 1987).

What was measured:
[1] = system: Male spontaneously hypertensive rats (SHR), arterial blood pressure; assay: Depressor response after intraduodenal administration (1 mg/kg), Table 2; type: in vivo, rat
Procedure: Arterial blood pressure was measured through the catherized artery with a pressure transducer (MPU-0.5, manufactured by Nihon Kohden Kabushiki Kaisha). The catheter was inserted into the abdominal aorta via the median coccygcal artery of SHR under light ether anesthesia. The recordings were made on a rectigraph (manufactured by Sanei Sokki Kabushiki Kaisha). The 1,4-dihydropyridine derivatives prepared in the foregoing examples were administered with catheter which was inserted previously into the caudal vein or duodenum at least two hours after the operation. SHR were restrained with wire mesh cage immediately after the operation.

[2] = system: Male spontaneously hypertensive rats (SHR), arterial blood pressure; assay: Depressor response after intravenous administration (30 μg/kg), Table 1; type: in vivo, rat; settings: for Duration: '90<' means greater than 90
Procedure: Male spontaneously hypertensive rats (SHR) which had mean arterial blood pressures higher than 140 mmHg were used for the experiments. Arterial blood pressure was measured through the catherized artery with a pressure transducer (MPU-0.5, manufactured by Nihon Kohden Kabushiki Kaisha). The catheter was inserted into the abdominal aorta via the median coccygcal artery of SHR under light ether anesthesia. The recordings were made on a rectigraph (manufactured by Sanei Sokki Kabushiki Kaisha). The 1,4-dihydropyridine derivatives prepared in the foregoing examples were administered with catheter which was inserted previously into the caudal vein or duodenum at least two hours after the operation. SHR were restrained with wire mesh cage immediately after the operation. Each derivative to be tested was dissolved in 1.5% PVP/ethanol, and then diluted with 0.9% saline or intravenous administration (30 μg/kg), or suspended in 5% gum arabic solution of intraduodenal administration (1 mg/kg).

Compound | The time to reach the lowest BP [1] | ΔBP (Maximum depressor response) [1] | Half-life ([1]; '120<' means greater than 120) | The time to reach the lowest BP [2] | ΔBP (Maximum depressor response) [2] | Duration [2] | halflife (number in parentheses in Duration column) [2]
4-(4-methoxyphenyl)-3-butenyl methyl 4-(3-nitrophenyl)-2,6-dimethyl-1,4-dihydropyridine-3,5-dicarboxylate [Example 18] | 37 min | 18 mmHg | 2 h | – | – | – | –
COC(=O)C1=C(C)NC(C)=C(C(=O)OCCCc2ccccc2)C1c1cccc([N+](=O)[O-])c1 (stereo not drawn) [E, 4(3-nitrophenyl)-2,6-dimethyl-1,4-dihydropyridine-3,5-dicarboxylic aci 3methyl ester 5(3-phenyl)-1-propyl ester, reference compound] | – | 0 mmHg | – | – | – | – | –
CCC(C=Cc1ccccc1)OC(=O)C1=C(C)NC(C)=C(C(=O)OC)C1c1cccc([N+](=O)[O-])c1 (stereo not drawn) [Example 25, 1-ethyl-3-phenyl-2-propenyl methyl 4-(3-nitrophenyl)-2,6-dimethyl-1,4-dihydropyridine-3,5-dicarboxylate] | – | – | – | 10 min | 71 mmHg | > 240 min | –
COC(=O)C1=C(C)NC(C)=C(C(=O)OCC=CC=Cc2cccc3ccccc23)C1c1cccc([N+](=O)[O-])c1 (stereo not drawn) [Example 54, Methyl 5-(1-naphthyl)-2,4-pentadienyl 4-(3-nitrophenyl)-2,6-dimethyl-1,4-dihydropyridine-3,5-dicarboxylate] | – | – | – | 6.0 min | 30 mmHg | > 90 min | –
COC(=O)C1=C(C)NC(C)=C(C(=O)OCC=Cc2ccccc2)C1c1cccs1 (stereo not drawn) [Example 65, Cinnamyl methyl 4-(2-thienyl)-2,6-dimethyl-1,4-dihydropyridine-3,5-dicarboxylate] | – | – | – | 0.3 min | 18 mmHg | – | –
COC(=O)C1=C(C)NC(C)=C(C(=O)OCCC=Cc2ccc(C)cc2)C1c1cccc([N+](=O)[O-])c1 (stereo not drawn) [Example 20, 4-(p-methylphenyl)-3-butenyl methyl 4-(3-nitrophenyl)-2,6-dimethyl-1,4-dihydropyridine-3,5-dicarboxylate] | – | – | – | 1.8 min | 52.5 mmHg | 90 min | –
CC1=C(C(=O)OC(C)C)C(c2cccc([N+](=O)[O-])c2)C(C(=O)OC(C)C=Cc2ccccc2)=C(C)N1 (stereo not drawn) [Example 32, 1-methyl-3-phenyl-2-propenyl isopropyl 4-(3-nitrophenyl)-2,6-dimethyl-1,4-dihydropyridine-3,5-dicarboxylate] | – | – | – | 5 min | 90 mmHg | > 190 min | –
COC(=O)C1=C(C)NC(C)=C(C(=O)OC(C=Cc2ccccc2)C(C)C)C1c1cccc([N+](=O)[O-])c1 (stereo not drawn) [Example 8, 1-isopropyl-3-phenyl-2-propenyl methyl 4-(3-nitrophenyl)-2,6-dimethyl-1,4-dihydropyridine-3,5-dicarboxylate] | – | – | – | 25 min | 87 mmHg | > 180 min | –
C=CCCOC(=O)C1=C(C)NC(C)=C(C(=O)OCC=CC=CC)C1c1cccc([N+](=O)[O-])c1 (stereo not drawn) [Example 79, 3-butenyl 2,4-hexadienyl 4-(3-nitrophenyl)-2,6-dimethyl-1,4-dihydropyridine-3,5-dicarboxylate] | – | – | – | 2.7 min | 55 mmHg | – | –
COC(=O)C1=C(C)NC(C)=C(C(=O)OCC=Cc2ccc3ccccc3c2)C1c1cccc([N+](=O)[O-])c1 (stereo not drawn) [Example 29, 3-(2-naphthyl)-2-propenyl methyl 4-(3-nitrophenyl)-2,6-dimethyl-1,4-dihydropyridine-3,5-dicarboxylate] | – | – | – | 5.0 min | 25 mmHg | – | –
CC1=C(C(=O)OCC=Cc2ccccc2)C(c2cccc([N+](=O)[O-])c2)C(C(=O)OCC=Cc2ccccc2)=C(C)N1 (stereo not drawn) [Example 45, Dicinnamyl 4-(3-nitrophenyl)-2,6-dimethyl-1,4-dihydropyridine-3,5-dicarboxylate] | – | – | – | 27 min | 32 mmHg | > 90 min | –
COC(=O)C1=C(C)NC(C)=C(C(=O)OCCC=Cc2ccsc2)C1c1cccc([N+](=O)[O-])c1 (stereo not drawn) [Example 26, 4-(3-thienyl)-3-butenyl methyl 4-(3-nitrophenyl)-2,6-dimethyl-1,4-dihydropyridine-3,5-dicarboxylate] | – | – | – | 1.5 min | 47 mmHg | – | –
C=CCOC(=O)C1=C(C)NC(C)=C(C(=O)OCC=CC=CC)C1c1cccc([N+](=O)[O-])c1 (stereo not drawn) [Example 80, Allyl 2,4-hexadienyl 4-(3-nitrophenyl)-2,6-dimethyl-1,4-dihydropyridine-3,5-dicarboxylate] | – | – | – | 1.4 min | 40 mmHg | – | –
COC(=O)C1=C(C)NC(C)=C(C(=O)OCC=C(C)c2ccccc2)C1c1cccc([N+](=O)[O-])c1 (stereo not drawn) [Example 5, 3-phenyl-2-butenyl methyl 4-(3-nitrophenyl)-2,6-dimethyl-1,4-dihydropyridine-3,5-dicarboxylate] | – | – | – | 1.0 min | 44 mmHg | 65 min | –
COC(=O)C1=C(C)NC(C)=C(C(=O)OCC=Cc2ccccc2)C1c1ccccc1F (stereo not drawn) [Example 40, Cinnamyl methyl 4-(2-fluorophenyl)-2,6-dimethyl-1,4-dihydropyridine-3,5-dicarboxylate] | – | – | – | 1.4 min | 60 mmHg | > 90 min | –
CC1=C(C(=O)OCC=Cc2ccccc2)C(c2cccc([N+](=O)[O-])c2)C(C(=O)OCCSc2ccccc2)=C(C)N1 (stereo not drawn) [Example 42, Cinnamyl 2-phenylthioethyl 4-(3-nitrophenyl)-2,6-dimethyl-1,4-dihydropyridine-3,5-dicarboxylate] | – | – | – | 10 min | 35 mmHg | > 90 min | –
COC(=O)C1=C(C)NC(C)=C(C(=O)OCC=C(c2ccccc2)c2ccccc2)C1c1cccc([N+](=O)[O-])c1 (stereo not drawn) [Example 9, 3,3-diphenyl-2-propenyl methyl 4-(3-nitrophenyl)-2,6-dimethyl-1,4-dihydropyridine-3,5-dicarboxylate] | – | – | – | 13 min | 12 mmHg | > 240 min | –
CC=CC=CCOC(=O)C1=C(C)NC(C)=C(C(=O)OC2CCCCC2)C1c1cccc([N+](=O)[O-])c1 (stereo not drawn) [Example 70, Cyclohexyl 2,4-hexadienyl 4-(3-nitrophenyl)-2,6-dimethyl-1,4-dihydropyridine-3,5-dicarboxylate] | – | – | – | 7.0 min | 65 mmHg | > 90 min | –
CC=CC=CCOC(=O)C1=C(C)NC(C)=C(C(=O)OCC)C1c1cccc([N+](=O)[O-])c1 (stereo not drawn) [Example 67, Ethyl 2,4-hexadienyl 4-(3-nitrophenyl)-2,6-dimethyl-1,4-dihydropyridine-3,5-dicarboxylate] | – | – | – | 1.0 min | 72 mmHg | > 90 min | 0.617 h
CC=CC=CCOC(=O)C1=C(C)NC(C)=C(C(=O)OCC(C)C)C1c1cccc([N+](=O)[O-])c1 (stereo not drawn) [Example 76, Isobutyl 2,4-hexadienyl 4-(3-nitrophenyl)-2,6-dimethyl-1,4-dihydropyridine-3,5-dicarboxylate] | – | – | – | 6 min | 32 mmHg | – | –
CC=CC=CCOC(=O)C1=C(C)NC(C)=C(C(=O)OC)C1c1cccc(C(F)(F)F)c1 (stereo not drawn) [Example 72, methyl 2,4-hexadienyl 4-(3-trifluoromethylphenyl)-2,6-dimethyl-1,4-dihydropyridine-3,5-dicarboxylate] | – | – | – | 1.5 min | 63 mmHg | > 120 min | –
COC(=O)C1=C(C)NC(C)=C(C(=O)OCC=CC=Cc2ccco2)C1c1cccc([N+](=O)[O-])c1 (stereo not drawn) [Example 52, Methyl 5-(2-furyl)-2,4-pentadienyl 4-(3-nitrophenyl)-2,6-dimethyl-1,4-dihydropyridine-3,5-dicarboxylate] | – | – | – | 2.0 min | 55 mmHg | > 90 min | –
CC=CC=CCOC(=O)C1=C(C)NC(C)=C(C(=O)OCC=CC)C1c1cccc([N+](=O)[O-])c1 (stereo not drawn) [Example 78, 2-butenyl 2,4-hexadienyl 4-(3-nitrophenyl)-2,6-dimethyl-1,4-dihydropyridine-3,5-dicarboxylate] | – | – | – | 2.4 min | 23 mmHg | – | –
COC(=O)C1=C(C)NC(C)=C(C(=O)OC/C=C\C=C\c2ccccc2)C1c1cccc([N+](=O)[O-])c1 (stereo not drawn) [Example 59, Methyl (2Z,4E)-5-phenyl-2,4-pentadienyl 4-(3-nitrophenyl)-2,6-dimethyl-1,4-dihydropyridine-3,5-dicarboxylate] | – | – | – | 1.8 min | 56.7 mmHg | – | –
CC=CC=CCOC(=O)C1=C(C)NC(C)=C(C(=O)OCC=CC=CC)C1c1cccc([N+](=O)[O-])c1 (stereo not drawn) [Example 73, bis(2,4-hexadienyl) 4-(3-nitrophenyl)-2,6-dimethyl-1,4-dihydropyridine-3,5-dicarboxylate] | – | – | – | 6.0 min | 55 mmHg | > 120 min | –
